Values after ≈ are worked out from the molar mass of the structure shown.
Assays:
H. pylori, ATCC 43504 = experiment: Antibacterial power test, Columbia agar, MIC; format: cell-based, Helicobacter pylori; details: Helicobacter pylori, ATCC43504, 72 h, 37° C., pH 7.0, 3 days, read on 4th day, read-out: MIC, in vitro anti-Helicobacter pylori activity
Method: An in vitro test was performed in a Columbia agar medium using a standard strain of H. pylori, ATCC 43504. […] Each of the test objects was dissolved in a 1% DMSO solution. Furthermore, as antibiotic control drugs, ampicillin from the penicillin family (control drug 1), gentamycin from the aminoglycoside family (control drug 2), tetracycline from the tetracycline family (control drug 3), and ofloxacin from the new quinolone family (control drug 4) were used.

[1] = test system: H. pylori ofloxacin- and roxithromycin-resistant clinical isolate TY2; experiment: In vitro MIC test in Columbia agar, resistant clinical isolate; format: cell-based; details: Helicobacter pylori, 72 h; resistant strain TY2; 37° C., pH 7.0, 3 days
Method: (§1) An in vitro test was performed in a Columbia agar medium using standard strains of H. pylori, NCTC 11637 and 11916, clinical isolates PT#1045482, PT#1045483 and PT#1045484, and ofloxacin- and roxithromycin-resistant, clinical isolates TY2, 4 and 5. Each of the test objects was dissolved in a 1% DMSO solution. Furthermore, as antibiotic control drugs, roxithromycin from the macrolide family and ofloxacin from the new quinolone family were used. The strains were cultured at 37° C. and pH 7.0 for 3 days, and on the 4th day, the minimum inhibitory concentrations (MIC, μg/ml) were determined.

[2] = test system: H. pylori ofloxacin- and roxithromycin-resistant clinical isolate TY5; experiment: as above; format: cell-based; details: Helicobacter pylori, 72 h; resistant strain TY5; 37° C., pH 7.0, 3 days
Method: as §1

[3] = test system: H. pylori ofloxacin- and roxithromycin-resistant clinical isolate TY4; experiment: as above; format: cell-based; details: Helicobacter pylori, 72 h; resistant strain TY4; 37° C., pH 7.0, 3 days
Method: as §1

[4] = test system: H. pylori clinical isolate PT#1045484; experiment: In vitro MIC test in Columbia agar, clinical isolate; format: cell-based; details: Helicobacter pylori, 72 h, 37° C., pH 7.0, 3 days
Method: as §1

[5] = test system: H. pylori clinical isolate PT#1045482; experiment: as above; format: cell-based; details: Helicobacter pylori, 72 h, 37° C., pH 7.0, 3 days
Method: as §1

[6] = test system: H. pylori clinical isolate PT#1045483; experiment: as above; format: cell-based; details: Helicobacter pylori, 72 h, 37° C., pH 7.0, 3 days
Method: as §1

H. pylori NCTC 11637 = experiment: In vitro MIC test in Columbia agar, standard strain; format: cell-based, Helicobacter pylori; details: Helicobacter pylori, NCTC11637, 72 h; standard strain NCTC 11637; 37° C., pH 7.0, 3 days
Method: as §1

H. pylori NCTC 11916 = experiment: as above; format: cell-based, Helicobacter pylori; details: Helicobacter pylori, NCTC11916, 72 h; standard strain NCTC 11916; 37° C., pH 7.0, 3 days
Method: as §1

[7] = test system: Mycobacterium ranae (ATCC 110); experiment: In vitro antibacterial test against various bacteria, MIC; format: cell-based; details: ATCC110, 37° C., 20 to 48 hours, read-out: MIC
Method: (§2) An in vitro antibacterial test for the compounds of Examples 1 to 6 against various bacteria was performed. As gram-negative bacteria, Escherichia coli (ATCC 10536, ATCC 25922), Klebsiella pneumonia (ATCC 10031), Proteus vulgaris (ATCC 13315), Pseudomonas aeruginosa (ATCC 9027), Salmonella typhimurium (ATCC 13311), and as gram-positive bacteria, Staphylococcus aureus, MRSA (ATCC 33591), Staphylococcus epidermidis (ATCC 12228), Streptococcus pneumonia (ATCC 6301), Mycobacterium ranae (ATCC 110) and Enterococcus faecalis (VRE, ATCC 51575) were used. The various bacteria were cultured at 37° C. for 20 to 48 hours by conventional methods, and the minimum inhibitory concentrations (MIC, μg/ml) were determined. Each of the test objects were dissolved in a 1% DMSO solution. Furthermore, as an antibiotic control drug, gentamycin (GEM) from the aminoglycoside family was used.

[8] = test system: Escherichia coli (ATCC 10536); experiment: as above; format: cell-based; details: ATCC10536, 37° C., 20 to 48 hours, read-out: MIC
Method: as §2

[9] = test system: Pseudomonas aeruginosa (ATCC 9027); experiment: as above; format: cell-based; details: ATCC9027, 37° C., 20 to 48 hours, read-out: MIC
Method: as §2

[10] = test system: Staphylococcus aureus, MRSA (ATCC 33591); experiment: as above; format: cell-based; details: 37° C., 20 to 48 hours, read-out: MIC
Method: as §2

[11] = test system: Enterococcus faecalis (VRE, ATCC 51575); experiment: as above; format: cell-based; details: 37° C., 20 to 48 hours
Method: as §2

[12] = test system: Klebsiella pneumonia (ATCC 10031); experiment: as above; format: cell-based; details: Klebsiella pneumoniae, ATCC10031, 37° C., 20 to 48 hours, read-out: MIC
Method: as §2

[13] = test system: Escherichia coli (ATCC 25922); experiment: as above; format: cell-based; details: ATCC25922, 37° C., 20 to 48 hours, read-out: MIC
Method: as §2

[14] = test system: Salmonella typhimurium (ATCC 13311); experiment: as above; format: cell-based; details: Salmonella enterica, 37° C., 20 to 48 hours, read-out: MIC
Method: as §2

[15] = test system: Proteus vulgaris (ATCC 13315); experiment: as above; format: cell-based; details: ATCC13315, 37° C., 20 to 48 hours, read-out: MIC
Method: as §2

[16] = test system: Streptococcus pneumonia (ATCC 6301); experiment: as above; format: cell-based; details: Streptococcus pneumoniae, ATCC6301, 37° C., 20 to 48 hours
Method: as §2

[17] = test system: Staphylococcus epidermidis (ATCC 12228); experiment: as above; format: cell-based; details: ATCC12228, 37° C., 20 to 48 hours, read-out: MIC
Method: as §2

[18] = test system: Helicobacter pylori NCTC11916; details: standard strain NCTC11916; data from Table 6 of JP-A No. 7-69888; cited from earlier work
[19] = test system: Helicobacter pylori NCTC11637; details: standard strain NCTC11637; data from Table 6 of JP-A No. 7-69888; cited from earlier work

| SMILES | MIC (H. pylori, ATCC 43504) | MIC [1] | MIC [2] | MIC [3] | MIC [4] | MIC [5] | MIC [6] | MIC (H. pylori NCTC 11637) | MIC (H. pylori NCTC 11916) | MIC [7] | MIC [8] | MIC [9] | MIC [10] | MIC [11] | MIC [12] | MIC [13] | MIC [14] | MIC [15] | MIC [16] | MIC [17] | further results |
| --- | --- | --- | --- | --- | --- | --- | --- | --- | --- | --- | --- | --- | --- | --- | --- | --- | --- | --- | --- | --- | --- |
| Cc1c(OCCCO)ccnc1CSc1nc2ccccc2[nH]1 [Comparative Compound 2, 2-[{4-(3-hydroxypropoxy)-3-methylpyridin-2-yl}methylthio]-1H-benzimidazole, reference compound] | 3 µg/mL (≈ 9.11 µM) | – | – | – | – | – | – | – | – | – | – | – | – | – | – | – | – | – | – | – | – |
| CC1(C)S[C@@H]2[C@H](NC(=O)[C@H](N)c3ccccc3)C(=O)N2[C@H]1C(=O)O [Control Drug 1 (Ampicillin), ampicillin, reference compound] | 0.1 µg/mL (≈ 0.286 µM) | – | – | – | – | – | – | – | – | – | – | – | – | – | – | – | – | – | – | – | – |
| CN(C)[C@@H]1C(O)=C(C(N)=O)C(=O)[C@@]2(O)C(O)=C3C(=O)c4c(O)cccc4[C@@](C)(O)[C@H]3C[C@@H]12 [Control Drug 3 (Tetracycline), tetracycline, reference compound] | 0.3 µg/mL (≈ 0.675 µM) | – | – | – | – | – | – | – | – | – | – | – | – | – | – | – | – | – | – | – | – |
| CC1COc2c(N3CCN(C)CC3)c(F)cc3c(=O)c(C(=O)O)cn1c23 (stereo not shown) [Control Drug 4 (Ofloxacin), ofloxacin, reference compound] | 1 µg/mL (≈ 2.77 µM) | 2.5 µg/mL (≈ 6.92 µM) | 2.5 µg/mL (≈ 6.92 µM) | 25 µg/mL (≈ 69.2 µM) | 0.4 µg/mL (≈ 1.11 µM) | 0.8 µg/mL (≈ 2.21 µM) | 0.8 µg/mL (≈ 2.21 µM) | 0.8 µg/mL (≈ 2.21 µM) | 0.8 µg/mL (≈ 2.21 µM) | – | – | – | – | – | – | – | – | – | – | – | – |
| Cc1c(OCCCCCO)ccnc1CSc1nc2ccccc2[nH]1 [Example 1, 2-[{4-(5-hydroxypentyloxy)-3-methylpyridin-2-yl}methylthio]-1H-benzimidazole] | 0.3 µg/mL (≈ 0.839 µM) | 0.2 µg/mL (≈ 0.559 µM) | 0.3 µg/mL (≈ 0.839 µM) | 0.3 µg/mL (≈ 0.839 µM) | 0.3 µg/mL (≈ 0.839 µM) | 0.2 µg/mL (≈ 0.559 µM) | 0.3 µg/mL (≈ 0.839 µM) | 0.3 µg/mL (≈ 0.839 µM) | 0.3 µg/mL (≈ 0.839 µM) | > 100 µg/mL | > 100 µg/mL | > 100 µg/mL | > 100 µg/mL | > 100 µg/mL | > 100 µg/mL | > 100 µg/mL | > 100 µg/mL | > 100 µg/mL | > 100 µg/mL | > 100 µg/mL | – |
| Cc1c(OCCCCCCO)ccnc1CSc1nc2ccccc2[nH]1 [Example 2, 2-[{4-(6-hydroxyhexyloxy)-3-methylpyridin-2-yl}methylthio]-1H-benzimidazole] | 0.1 µg/mL (≈ 0.269 µM) | 0.3 µg/mL (≈ 0.808 µM) | 0.1 µg/mL (≈ 0.269 µM) | 0.1 µg/mL (≈ 0.269 µM) | 0.3 µg/mL (≈ 0.808 µM) | 0.1 µg/mL (≈ 0.269 µM) | 0.1 µg/mL (≈ 0.269 µM) | 0.1 µg/mL (≈ 0.269 µM) | 0.1 µg/mL (≈ 0.269 µM) | > 100 µg/mL | > 100 µg/mL | > 100 µg/mL | > 100 µg/mL | > 100 µg/mL | > 100 µg/mL | > 100 µg/mL | > 100 µg/mL | > 100 µg/mL | > 100 µg/mL | > 100 µg/mL | – |
| Cc1c(OCCCCCCCO)ccnc1CSc1nc2ccccc2[nH]1 [Example 3, 2-[{4-(7-hydroxyheptyloxy)-3-methylpyridin-2-yl}methylthio]-1H-benzimidazole] | 0.1 µg/mL (≈ 0.259 µM) | 0.1 µg/mL (≈ 0.259 µM) | 0.1 µg/mL (≈ 0.259 µM) | 0.1 µg/mL (≈ 0.259 µM) | 0.1 µg/mL (≈ 0.259 µM) | 0.1 µg/mL (≈ 0.259 µM) | 0.1 µg/mL (≈ 0.259 µM) | 0.1 µg/mL (≈ 0.259 µM) | 0.1 µg/mL (≈ 0.259 µM) | > 100 µg/mL | > 100 µg/mL | > 100 µg/mL | > 100 µg/mL | > 100 µg/mL | > 100 µg/mL | > 100 µg/mL | > 100 µg/mL | > 100 µg/mL | > 100 µg/mL | > 100 µg/mL | – |
| CC[C@H]1OC(=O)[C@H](C)[C@@H](O[C@H]2C[C@@](C)(OC)[C@@H](O)[C@H](C)O2)[C@H](C)[C@@H](O[C@@H]2O[C@H](C)C[C@H](N(C)C)[C@H]2O)[C@](C)(O)C[C@@H](C)/C(=N\OCOCCOC)[C@H](C)[C@@H](O)[C@]1(C)O [RXM, roxithromycin, reference compound] | – | > 100 µg/mL | 3.5 µg/mL (≈ 4.18 µM) | > 100 µg/mL | 0.2 µg/mL (≈ 0.239 µM) | 0.4 µg/mL (≈ 0.478 µM) | 0.2 µg/mL (≈ 0.239 µM) | 0.2 µg/mL (≈ 0.239 µM) | 0.1 µg/mL (≈ 0.119 µM) | – | – | – | – | – | – | – | – | – | – | – | MIC [18]: 0.1 µg/mL (≈ 0.119 µM); MIC [19]: 0.2 µg/mL (≈ 0.239 µM) |
